From the supplement of paper PMC10307832

Columns and labels:
Assay in all cases: relative viability (nuclei count vs DMSO), 5 days (fraction); higher = more cells survive
[1] = compound: C1CC(C2=C(C1)C3=C(N2)C=CC(=C3)Cl)C(=O)N [Selisistat] + Cc1cc(Nc2cc(N3CCN(C)CC3)nc(Sc3ccc(NC(=O)C4CC4)cc3)n2)n[nH]1 [Tozasertib] (partner 0.1 µM)
In short: (§1)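 Nuclei were stained with Hoechst during a one-step fixation (final 0.05% Triton X-100, 1% formaldehyde, 1 ug/ml Hoechst) carried out 5 days after dosing, then counted on 4× images. The cells, lung cancer lines in 1536-well plates, had been dosed by pin tool the day after seeding with one drug alone or a fixed anchor-drug dose plus five library-drug doses (not always all listed) in √10 steps. Relative viability is the nuclei count in treated wells divided by that in vehicle wells, and each value is the median of duplicate plates.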

[2] = compound: C1CC(C2=C(C1)C3=C(N2)C=CC(=C3)Cl)C(=O)N [Selisistat] + N=C(N)NC(=N)NCCc1ccccc1 [Phenformin] (partner 250 µM)
In short: as §1

[3] = compound: c1ccc2c(CCNc3ccc(Nc4ccncc4)cc3)c[nH]c2c1 [Serdemetan] + CC(C)C[C@H](NC(=O)[C@H](Cc1ccccc1)NC(=O)c1cnccn1)B(O)O [Bortezomib] (partner 0.002 µM)
In short: as §1

[4] = compound: c1ccc2c(CCNc3ccc(Nc4ccncc4)cc3)c[nH]c2c1 [Serdemetan] + CS(=O)(=O)CCNCc1ccc(-c2ccc3ncnc(Nc4ccc(OCc5cccc(F)c5)c(Cl)c4)c3c2)o1 [Lapatinib] (partner 2 µM)
In short: as §1

Cell Line	relative viability ([1]; first compound 0.4 µM)	relative viability ([1]; first compound 12.65 µM)	relative viability ([1]; first compound 40 µM)	relative viability ([2]; first compound 0.4 µM)	relative viability ([2]; first compound 4 µM)	relative viability ([2]; first compound 12.65 µM)	relative viability ([2]; first compound 40 µM)	relative viability ([3]; first compound 0.04 µM)	relative viability ([3]; first compound 0.1265 µM)	relative viability ([3]; first compound 0.4 µM)	relative viability ([3]; first compound 1.265 µM)	relative viability ([3]; first compound 4 µM)	relative viability ([4]; first compound 0.04 µM)	relative viability ([4]; first compound 0.1265 µM)	relative viability ([4]; first compound 0.4 µM)	relative viability ([4]; first compound 1.265 µM)	relative viability ([4]; first compound 4 µM)	relative viability ([1]; first compound 1.265 µM)	relative viability ([1]; first compound 4 µM)	relative viability ([2]; first compound 1.265 µM)
HCC-44	0.968	0.848	0.931	0.159	0.168	0.226	0.353	0.854	0.849	0.827	0.621	0.85	0.875	0.99	0.862	0.913	0.873	–	–	–
HCC-78	0.486	0.407	0.424	0.774	0.54	0.685	0.744	0.471	0.524	0.476	0.52	0.372	0.769	0.666	0.323	0.448	0.78	0.418	0.398	0.815
HCC-366	0.0912	0.0918	0.0529	0.662	0.557	0.575	0.609	1.08	1.04	1.03	0.0358	0.0541	1.07	0.811	0.902	0.0523	0.0553	0.131	0.064	0.679
HCC-827	0.418	0.389	0.392	0.448	0.428	0.395	0.432	1.05	0.959	–	0.954	1.01	0.168	0.178	–	0.188	0.173	0.429	0.444	0.399
HOP-62	0.362	0.375	0.372	0.663	0.777	0.64	0.676	1.09	0.928	0.476	0.47	0.871	0.862	1.06	0.937	0.791	0.89	0.383	0.464	0.619
LC-2-ad	0.535	0.433	0.529	0.625	0.437	0.582	0.632	0.921	0.927	1.04	–	0.912	0.916	1	0.954	–	0.913	–	0.378	–
LCLC-97TM1	0.207	0.231	0.212	0.426	–	0.362	0.461	0.546	0.517	0.809	–	0.307	0.776	1.16	1.11	0.674	0.87	0.216	–	0.409
LOU-NH91	0.784	0.703	0.673	0.822	0.627	0.71	0.728	0.536	0.485	0.412	0.409	0.433	0.773	0.83	–	0.606	0.83	0.626	0.598	0.691
LU99A	0.298	0.313	0.281	0.897	0.956	0.806	0.832	1.19	1.08	1.12	0.4	0.255	1.03	0.927	1.07	0.363	0.229	0.249	0.319	0.956
LXF-289	0.18	0.179	0.237	0.503	0.475	0.499	0.538	0.954	1.01	0.944	0.951	0.894	0.857	0.885	0.851	0.827	0.759	0.162	0.2	0.517
NCI-H23	0.377	0.33	0.295	0.731	0.658	0.773	0.786	1.1	1.07	1.05	0.81	1.09	1.11	1.19	1.13	0.818	1.07	0.384	0.319	0.824
NCI-H322M	0.552	0.469	0.495	0.768	0.656	0.77	0.915	1.32	1.26	1.06	1.2	1.36	0.577	0.585	0.546	0.546	0.562	0.475	0.455	0.837
NCI-H460	0.515	0.28	0.441	0.598	0.366	0.495	0.571	1.05	1.1	1.19	0.561	0.1	0.878	0.936	0.866	0.659	0.132	0.366	0.289	0.565
NCI-H520	0.387	0.415	0.451	0.598	0.577	0.533	0.528	0.752	0.561	0.615	0.476	0.572	0.791	0.91	0.813	0.813	0.614	0.472	0.488	0.485
NCI-H596	0.848	0.835	0.914	0.742	0.584	0.593	0.716	1.17	0.606	1.11	0.649	0.818	1.07	0.972	1.09	0.871	0.666	0.753	0.898	0.816
NCI-H647	0.227	0.29	0.343	0.561	0.43	0.324	0.678	0.95	0.914	0.95	0.559	0.47	1.06	1.11	1.1	0.669	0.475	0.322	0.44	0.499
NCI-H650	0.783	0.622	0.66	0.499	0.441	0.432	0.485	0.673	0.679	0.872	0.674	0.848	0.779	0.844	1.05	0.667	0.669	0.674	0.717	0.432

Cell Line	relative viability ([1]; first compound 0.4 µM)	relative viability ([1]; first compound 12.65 µM)	relative viability ([1]; first compound 40 µM)	relative viability ([2]; first compound 0.4 µM)	relative viability ([2]; first compound 4 µM)	relative viability ([2]; first compound 12.65 µM)	relative viability ([2]; first compound 40 µM)	relative viability ([3]; first compound 0.04 µM)	relative viability ([3]; first compound 0.1265 µM)	relative viability ([3]; first compound 0.4 µM)	relative viability ([3]; first compound 1.265 µM)	relative viability ([3]; first compound 4 µM)	relative viability ([4]; first compound 0.04 µM)	relative viability ([4]; first compound 0.1265 µM)	relative viability ([4]; first compound 0.4 µM)	relative viability ([4]; first compound 1.265 µM)	relative viability ([4]; first compound 4 µM)	relative viability ([1]; first compound 1.265 µM)	relative viability ([1]; first compound 4 µM)	relative viability ([2]; first compound 1.265 µM)
NCI-H661	0.353	0.352	0.352	0.27	0.282	0.286	0.251	0.78	0.909	0.766	0.84	0.74	0.474	0.503	0.572	0.428	0.438	0.354	0.379	0.263
NCI-H727	0.681	0.483	0.69	0.564	–	0.398	0.478	0.923	1.01	1.03	0.557	0.431	0.768	0.919	0.758	0.797	0.416	0.518	–	0.534
NCI-H838	0.238	0.26	0.249	0.62	0.346	0.547	0.57	0.869	0.739	0.848	0.74	0.856	0.9	0.986	0.9	0.86	1.01	0.278	0.245	0.478
NCI-H1355	0.599	0.497	0.589	0.488	0.433	0.465	0.462	1.23	1.19	1.12	1.17	1.1	0.938	1.13	0.911	1.02	0.973	0.648	0.519	0.486
NCI-H1437	0.426	0.369	0.369	0.354	0.278	0.29	0.308	0.545	0.497	0.471	0.46	0.547	0.846	0.752	0.679	0.76	0.634	0.398	0.339	0.317
NCI-H1650	0.355	0.34	0.334	0.375	0.336	0.361	0.465	0.196	0.223	0.188	0.171	0.188	0.718	0.768	0.599	0.846	0.558	0.301	0.404	0.448
NCI-H1651	0.7	0.618	0.584	0.381	0.274	0.307	0.284	0.805	0.938	0.904	0.501	0.356	0.575	0.65	0.49	0.271	0.275	0.735	0.599	0.293
NCI-H1666	0.631	0.589	0.541	0.514	0.582	0.538	0.529	0.97	0.761	0.838	0.868	0.534	0.853	0.656	0.613	0.573	0.498	0.591	0.594	0.606
NCI-H1734	0.278	0.263	0.228	0.442	0.324	0.382	0.356	0.908	–	0.677	0.158	0.18	0.855	–	0.833	0.0959	0.195	0.265	0.283	0.377
NCI-H1755	0.635	0.525	0.61	0.645	0.585	0.559	0.618	0.877	0.949	0.896	0.58	0.563	0.984	1.01	0.989	0.548	0.714	0.613	0.621	0.615
NCI-H1915	0.436	0.339	0.41	0.377	0.368	0.355	0.368	0.957	0.974	1.02	0.723	0.86	0.967	0.995	1.03	0.955	0.965	0.41	0.374	0.356
NCI-H1975	0.715	0.48	0.396	0.419	0.366	0.41	0.382	0.346	0.378	0.377	0.313	0.314	0.837	0.855	0.882	0.837	1.13	0.63	0.69	0.422
NCI-H1993	0.58	0.569	0.539	0.518	0.528	0.556	0.537	1.08	1.06	1.05	–	1.11	0.873	0.861	0.75	–	0.768	0.579	0.57	0.545
NCI-H2009	0.743	0.694	0.744	0.509	0.366	0.449	0.422	0.95	0.986	0.929	0.787	0.797	0.851	1.03	0.889	0.822	0.691	0.734	0.765	0.483
NCI-H2023	0.417	0.263	0.307	0.413	0.455	0.312	0.357	0.74	0.985	0.9	0.485	0.28	0.709	0.861	0.742	0.387	0.253	0.34	0.286	0.398
NCI-H2085	0.852	0.805	0.806	0.824	0.472	0.735	0.728	1.11	1.13	1.06	0.723	0.674	0.814	0.779	0.74	0.649	0.501	0.779	0.697	0.717
